Measurements as given in patent US20060099648A1, “Compositions and methods for epitope mapping” (priority 2000, published 2006).

Biological target: Human IgG (Calbiochem; San Diego Calif.) (human)
Test: IgG displaced from peptide pin; competitor MSP1-19
Conditions: not given

Q: With DSYPL [Peptide# 82] as the molecule, how does the ΔF (%) read?
A: 9%

Q: How did the ΔF (%) turn out when EEDSG [Peptide# 64] was run?
A: 7%

Q: With YPLFD [Peptide# 84] as the molecule, how does the ΔF (%) read?
A: 12%

Q: Which ΔF (%) does the source give for NGKKI [Peptide# 70] here?
A: 12%

Q: How did the ΔF (%) turn out when CVKKQ [Peptide# 7] was run?
A: < 5%

Q: Which ΔF (%) does the source give for PLFDG [Peptide# 85] here?
A: 16%

Q: For ECTKP [Peptide# 77], which ΔF (%) is on record?
A: 13%

Q: For ITCEC [Peptide# 74], which ΔF (%) is on record?
A: 5%

Q: Which ΔF (%) does the source give for CECTK [Peptide# 76] here?
A: < 5%

Q: KKITC [Peptide# 72] was tested. Which ΔF (%) did it give?
A: 9%

Q: With GSNGK [Peptide# 68] as the molecule, how does the ΔF (%) read?
A: < 5%

Q: How did the ΔF (%) turn out when KKQCP [Peptide# 9] was run?
A: < 5%

Q: How did the ΔF (%) turn out when TCECT [Peptide# 75] was run?
A: 12%

Q: GKKIT [Peptide# 71] was tested. Which ΔF (%) did it give?
A: 6%

Q: Which ΔF (%) does the source give for SNGKK [Peptide# 69] here?
A: < 5%

Q: PDSYP [Peptide# 81] was tested. Which ΔF (%) did it give?
A: 9%

Q: Which ΔF (%) does the source give for DGIFC [Peptide# 88] here?
A: 7%

Q: For CTKPD [Peptide# 78], which ΔF (%) is on record?
A: 10%

Q: Which ΔF (%) does the source give for SGSNG [Peptide# 67] here?
A: < 5%

Q: DSGSN [Peptide# 66] was tested. Which ΔF (%) did it give?
A: 9%

Q: GIFCS [Peptide# 89] was tested. Which ΔF (%) did it give?
A: 11%

Q: With VKKQC [Peptide# 8] as the molecule, how does the ΔF (%) read?
A: < 5%

Q: Which ΔF (%) does the source give for LFDGI [Peptide# 86] here?
A: 11%

Q: TKPDS [Peptide# 79] was tested. Which ΔF (%) did it give?
A: 11%

Q: Which ΔF (%) does the source give for KITCE [Peptide# 73] here?
A: 7%

Q: With EDSGS [Peptide# 65] as the molecule, how does the ΔF (%) read?
A: 7%

Q: Which ΔF (%) does the source give for FDGIF [Peptide# 87] here?
A: 9%

Q: For SYPLF [Peptide# 83], which ΔF (%) is on record?
A: 13%

Q: With KPDSY [Peptide# 80] as the molecule, how does the ΔF (%) read?
A: 11%

System: MSP1-19
Test: Epitope mapping: displacement of human IgG from peptide pins on exposure to MSP1-19
Parameters: species or system Plasmodium falciparum
Conditions: change in human IgG binding to peptide pin after 1 h exposure to 50 mg/mL MSP1-19 at room temperature; normalised to no-peptide pins and control peptide GLAQG
Protocol: A natural human IgG antibody library was tested for its ability to bind to peptides associated with the 19 kDa C-terminal region of merozoite surface protein 1 (MSP1-19) from Plasmodium falciparum (Kaslow et al., Mol. Biochem. Parasitology 63:283-289 (1994)). The 89 amino acid sequence from MSP1-19 was used for the epitope mapping experiment (see Table 1).
Briefly, a library of pentamer peptides was synthesized on polypropylene pins following the procedures described by Geysen et al., Proc. Natl. Acad. Sci. USA 81:3998-4002 (1984). These peptides represented all five-amino-acid stretches of MSP1-19 offset by one residue (Table 1). Peptide pins were precoated in phosphate buffered saline (PBS), pH 7.2, containing 2% BSA and 0.1% TWEEN 20 for one hour at room temperature. Five successive washes of the pins were carried out for five minutes each with agitation in PBS. Human IgG (Calbiochem; San Diego Calif.) was complexed to the peptides by incubating 0.1 mg/mL IgG in PBS at 4° C. for 30 hours. Unbound antibody was removed by washing as described above in 10 mM TRIS, pH 7.4 buffer containing 150 mM NaCl (TBS) using new microtiter plates for transferring the pins for each of the five washings. Anti-human IgG (goat) alkaline phosphatase conjugate was diluted to 0.1 mg specific antibody/mL in TBS and incubated with the peptide/antibody complex for one hour at room temperature before washing five times with TBS, as described above. The pins were then incubated in assay solution containing 10 mM TRIS, pH 8.0, 150 mM NaCl, 0.5 mM MgCl2, and 0.1 mM 4-methylumbelliferyl-phosphate for 30 minutes at room temperature in the dark. Following incubation, the fluorescence intensity of the assay solution was measured in a Spectromax Gemini plate reader (Molecular Devices; Sunnyvale Calif.)(ex 358 nm/em 450 nm).
The peptide/antibody complexes on the pins were washed five times in TBS, as described above, and incubated with 50 mg/mL MSP1-19 diluted in TBS for one hour at room temperature. The pins were washed in TBS as before and incubated in assay mixture for 30 minutes in the dark prior to measurement of the fluorescent intensity. Change in binding was determined using the equation: ΔF=(FMSP−Fb,MSP)/(F100,MSP−Fb,MSP)−(F0−Fb,0)/(F100,0−Fb,0) where FMSP and F0 are the fluorescence intensities of peptide containing pins after and before exposure to MSP1-19, respectively. Fb,MSP and Fb,0 are the fluorescence intensities of pins with no peptide after and before exposure to MSP1-19, respectively. F100,MSP and F100,0 are the fluorescence intensities of pins containing a control peptide, GLAQG (SEQ ID NO:90), after and prior to exposure to MSP1-19.

Q: ADAKC [Peptide 58] was tested. Which “ΔF (%)” value did it give?
A: <5%

Q: For AKCTE [Peptide 60], which “ΔF (%)” value is on record?
A: 5%

Q: CDADA [Peptide 56] was tested. Which “ΔF (%)” value did it give?
A: <5%

Q: Which “ΔF (%)” value does the source give for CECTK [Peptide 76] here?
A: <5%

Q: Which “ΔF (%)” value does the source give for CFRHL [Peptide 18] here?
A: <5%

Q: CKCLL [Peptide 28] was tested. Which “ΔF (%)” value did it give?
A: <5%

Q: How did the “ΔF (%)” value turn out when CLLNY [Peptide 30] was run?
A: <5%

Q: Which “ΔF (%)” value does the source give for CNENN [Peptide 49] here?
A: 16%

Q: CPQNS [Peptide 12] was tested. Which “ΔF (%)” value did it give?
A: <5%

Q: CTEED [Peptide 62] was tested. Which “ΔF (%)” value did it give?
A: <5%

Q: How did the “ΔF (%)” value turn out when CTKPD [Peptide 78] was run?
A: 10%

Q: CVENP [Peptide 41] was tested. Which “ΔF (%)” value did it give?
A: <5%

Q: How did the “ΔF (%)” value turn out when CVKKQ [Peptide 7] was run?
A: <5%

Q: Which “ΔF (%)” value does the source give for DADAK [Peptide 57] here?
A: <5%

Q: For DAKCT [Peptide 59], which “ΔF (%)” value is on record?
A: <5%

Q: Which “ΔF (%)” value does the source give for DEREE [Peptide 23] here?
A: <5%

Q: With DGIFC [Peptide 88] as the molecule, how does the “ΔF (%)” value read?
A: 7%

Q: With DKCVE [Peptide 39] as the molecule, how does the “ΔF (%)” value read?
A: <5%

Q: DSGSN [Peptide 66] was tested. Which “ΔF (%)” value did it give?
A: 9%

Q: For DSYPL [Peptide 82], which “ΔF (%)” value is on record?
A: 9%

Q: For ECKCL [Peptide 27], which “ΔF (%)” value is on record?
A: <5%

Q: Which “ΔF (%)” value does the source give for ECTKP [Peptide 77] here?
A: 13%

Q: EDSGS [Peptide 65] was tested. Which “ΔF (%)” value did it give?
A: 7%

Q: EECKC [Peptide 26] was tested. Which “ΔF (%)” value did it give?
A: <5%

Q: For EEDSG [Peptide 64], which “ΔF (%)” value is on record?
A: 7%

Q: For EGDKC [Peptide 37], which “ΔF (%)” value is on record?
A: <5%

Q: With ENNGG [Peptide 51] as the molecule, how does the “ΔF (%)” value read?
A: <5%

Q: ENPNP [Peptide 43] was tested. Which “ΔF (%)” value did it give?
A: <5%

Q: With EREEC [Peptide 24] as the molecule, how does the “ΔF (%)” value read?
A: <5%

Q: Which “ΔF (%)” value does the source give for FDGIF [Peptide 87] here?
A: 9%

Q: FRHLD [Peptide 19] was tested. Which “ΔF (%)” value did it give?
A: <5%

Q: GCDAD [Peptide 55] was tested. Which “ΔF (%)” value did it give?
A: 7%

Q: GCFRH [Peptide 17] was tested. Which “ΔF (%)” value did it give?
A: <5%

Q: How did the “ΔF (%)” value turn out when GDKCV [Peptide 38] was run?
A: <5%

Q: With GGCDA [Peptide 54] as the molecule, how does the “ΔF (%)” value read?
A: <5%

Q: Which “ΔF (%)” value does the source give for GIFCS [Peptide 89] here?
A: 11%

Q: For GKKIT [Peptide 71], which “ΔF (%)” value is on record?
A: 6%

Q: For GSNGK [Peptide 68], which “ΔF (%)” value is on record?
A: <5%

Q: How did the “ΔF (%)” value turn out when HLDER [Peptide 21] was run?
A: <5%

Q: HQCVK [Peptide 5] was tested. Which “ΔF (%)” value did it give?
A: <5%

Q: With ISQHQ [Peptide 2] as the molecule, how does the “ΔF (%)” value read?
A: <5%

Q: ITCEC [Peptide 74] was tested. Which “ΔF (%)” value did it give?
A: 5%

Q: How did the “ΔF (%)” value turn out when KCLLN [Peptide 29] was run?
A: <5%

Q: With KCTEE [Peptide 61] as the molecule, how does the “ΔF (%)” value read?
A: 6%

Q: Which “ΔF (%)” value does the source give for KCVEN [Peptide 40] here?
A: <5%

Q: With KITCE [Peptide 73] as the molecule, how does the “ΔF (%)” value read?
A: 7%

Q: For KKITC [Peptide 72], which “ΔF (%)” value is on record?
A: 9%

Q: Which “ΔF (%)” value does the source give for KKQCP [Peptide 9] here?
A: <5%

Q: Which “ΔF (%)” value does the source give for KPDSY [Peptide 80] here?
A: 11%

Q: KQCPQ [Peptide 10] was tested. Which “ΔF (%)” value did it give?
A: <5%

Q: For KQEGD [Peptide 35], which “ΔF (%)” value is on record?
A: <5%

Q: How did the “ΔF (%)” value turn out when LDERE [Peptide 22] was run?
A: <5%

Q: For LFDGI [Peptide 86], which “ΔF (%)” value is on record?
A: 11%

Q: Which “ΔF (%)” value does the source give for LLNYK [Peptide 31] here?
A: <5%

Q: How did the “ΔF (%)” value turn out when LNYKQ [Peptide 32] was run?
A: <5%

Q: How did the “ΔF (%)” value turn out when NENNG [Peptide 50] was run?
A: 5%

Q: NGGCD [Peptide 53] was tested. Which “ΔF (%)” value did it give?
A: 10%

Q: NGKKI [Peptide 70] was tested. Which “ΔF (%)” value did it give?
A: 12%

Q: With NISQH [Peptide 1] as the molecule, how does the “ΔF (%)” value read?
A: <5%

Q: Which “ΔF (%)” value does the source give for NNGGC [Peptide 52] here?
A: 6%

Q: With NPNPT [Peptide 44] as the molecule, how does the “ΔF (%)” value read?
A: <5%

Q: How did the “ΔF (%)” value turn out when NPTCN [Peptide 46] was run?
A: <5%

Q: NSGCF [Peptide 15] was tested. Which “ΔF (%)” value did it give?
A: <5%

Q: NYKQE [Peptide 33] was tested. Which “ΔF (%)” value did it give?
A: <5%

Q: PDSYP [Peptide 81] was tested. Which “ΔF (%)” value did it give?
A: 9%

Q: With PLFDG [Peptide 85] as the molecule, how does the “ΔF (%)” value read?
A: 16%

Q: With PNPTC [Peptide 45] as the molecule, how does the “ΔF (%)” value read?
A: <5%

Q: With PQNSG [Peptide 13] as the molecule, how does the “ΔF (%)” value read?
A: <5%

Q: For PTCNE [Peptide 47], which “ΔF (%)” value is on record?
A: <5%

Q: QCPQN [Peptide 11] was tested. Which “ΔF (%)” value did it give?
A: <5%

Q: QCVKK [Peptide 6] was tested. Which “ΔF (%)” value did it give?
A: <5%

Q: With QEGDK [Peptide 36] as the molecule, how does the “ΔF (%)” value read?
A: <5%

Q: Which “ΔF (%)” value does the source give for QHQCV [Peptide 4] here?
A: <5%

Q: How did the “ΔF (%)” value turn out when QNSGC [Peptide 14] was run?
A: <5%

Q: How did the “ΔF (%)” value turn out when REECK [Peptide 25] was run?
A: <5%

Q: With RHLDE [Peptide 20] as the molecule, how does the “ΔF (%)” value read?
A: <5%

Q: SGCFR [Peptide 16] was tested. Which “ΔF (%)” value did it give?
A: <5%

Q: Which “ΔF (%)” value does the source give for SGSNG [Peptide 67] here?
A: <5%

Q: With SNGKK [Peptide 69] as the molecule, how does the “ΔF (%)” value read?
A: <5%

Q: How did the “ΔF (%)” value turn out when SQHQC [Peptide 3] was run?
A: <5%

Q: For SYPLF [Peptide 83], which “ΔF (%)” value is on record?
A: 13%

Q: For TCECT [Peptide 75], which “ΔF (%)” value is on record?
A: 12%

Q: TCNEN [Peptide 48] was tested. Which “ΔF (%)” value did it give?
A: <5%

Q: Which “ΔF (%)” value does the source give for TEEDS [Peptide 63] here?
A: <5%

Q: With TKPDS [Peptide 79] as the molecule, how does the “ΔF (%)” value read?
A: 11%
